Measured values published in ChEMBL document CHEMBL5518228, “DNA Interaction and Cleavage Modes of Anthraquinone-Fused Enediynes: A Study on Tiancimycins, Yangpumicins, and Their Semisynthetic Analogues” (J Med Chem, 2024).
pEC50, pIC50: −log10 of the molar value. Active and inactive are the calls of the source. No cut-off for these calls is given here.

Tests used:
[1] = system: Jurkat; test: Cytotoxicity against human Jurkat cells incubated for 72 hrs by CCK-8 assay; assay type: functional, cell-based
[2] = system: A549; test: Cytotoxicity against human A549 cells incubated for 72 hrs by CCK-8 assay; assay type: functional, cell-based; conditions: A549, 72 h
[3] = system: Caco-2; test: Cytotoxicity against human Caco-2 cells incubated for 72 hrs by CCK-8 assay; assay type: functional, cell-based; conditions: Caco-2, 72 h
[4] = Cytotoxicity against human KPL-4 cells incubated for 72 hrs by CCK-8 assay; assay type: functional, cell-based; conditions: KPL4, 72 h
[5] = Cytotoxicity against human NCM460 cells incubated for 72 hrs by CCK-8 assay; assay type: toxicity, cell-based
[6] = Cytotoxicity against human HUVEC cells incubated for 72 hrs by CCK-8 assay; assay type: toxicity, cell-based
[7] = system: Supercoiled DNA; test: Induction of supercoiled pBR322 DNA (unknown origin) cleavage assessed as relaxation of supercoiled plasmid incubated for 1 hr in presence of DTT by SYBR I Green staining based agarose gel electrophoresis analysis; assay type: nucleic-acid assay
[8] = system: Supercoiled DNA; test: Induction of supercoiled pBR322 DNA (unknown origin) cleavage at 0.5 uM incubated for 1 hr under pH 7.5 condition by agarose gel electrophoresis analysis; assay type: nucleic-acid assay
[9] = system: Supercoiled DNA; test: Induction of supercoiled pBR322 DNA (unknown origin) cleavage at 0.5 uM incubated for 1 hr in presence of pyridine under pH 7.4 condition by agarose gel electrophoresis analysis; assay type: nucleic-acid assay
[10] = system: Supercoiled DNA; test: Induction of supercoiled pBR322 DNA (unknown origin) cleavage at 0.5 uM incubated for 1 hr in presence of catalase under pH 7.4 condition by agarose gel electrophoresis analysis; assay type: nucleic-acid assay
[11] = system: Supercoiled DNA; test: Induction of supercoiled pBR322 DNA (unknown origin) cleavage at 0.5 uM incubated for 1 hr in presence of methanol under pH 7.4 condition by agarose gel electrophoresis analysis; assay type: nucleic-acid assay
[12] = system: Supercoiled DNA; test: Induction of supercoiled pBR322 DNA (unknown origin) cleavage at 0.5 uM incubated for 1 hr in presence of ethanol under pH 7.4 condition by agarose gel electrophoresis analysis; assay type: nucleic-acid assay
[13] = system: Supercoiled DNA; test: Induction of supercoiled pBR322 DNA (unknown origin) cleavage at 0.5 uM incubated for 1 hr in presence of mannitol under pH 7.4 condition by agarose gel electrophoresis analysis; assay type: nucleic-acid assay
[14] = system: DNA; test: Induction of duplex DNA (unknown origin) cleavage assessed as DNA cleaved fragments at AT-rich region at 100 uM incubated for 6 hr in presence of DTT by agarose gel electrophoresis analysis; assay type: nucleic-acid assay
[15] = system: Calf thymus DNA; test: Binding affinity to calf thymus DNA assessed as change in gibbs free energy in presence of ethidium bromide by competitive binding based fluorescence spectroscopic analysis; assay type: nucleic-acid assay; conditions: Bos taurus
[16] = system: DNA; test: Induction of duplex DNA (unknown origin) cleavage assessed as DNA cleaved fragments at GC-rich region at 17.5 uM incubated for 1 hr in presence of FeSO4.7H2O by agarose gel electrophoresis analysis; assay type: nucleic-acid assay
[17] = Toxicity in BALB/c mouse xenografted with human KPL-4 cells assessed as body weight loss at 0.05 mg/kg,iv administrated once per week for 2 weeks; assay type: organism-based; conditions: in vivo, 336 h
[18] = system: Supercoiled DNA; test: Induction of supercoiled pBR322 DNA (unknown origin) cleavage at 100 nM incubated for 1 hr in presence of NADPH by agarose gel electrophoresis analysis; assay type: nucleic-acid assay
[19] = system: Supercoiled DNA; test: Induction of supercoiled pBR322 DNA (unknown origin) cleavage at 100 nM incubated for 1 hr in presence of DTT by agarose gel electrophoresis analysis; assay type: nucleic-acid assay
[20] = system: Supercoiled DNA; test: Induction of supercoiled pBR322 DNA (unknown origin) cleavage at 0.5 uM incubated for 1 hr under pH 5.5 to 9.5 condition by agarose gel electrophoresis analysis; assay type: nucleic-acid assay
[21] = system: Supercoiled DNA; test: Induction of supercoiled pBR322 DNA (unknown origin) cleavage at 100 nM incubated for 1 hr in presence of adriamycin by agarose gel electrophoresis analysis; assay type: nucleic-acid assay
[22] = system: Supercoiled DNA; test: Induction of supercoiled pBR322 DNA (unknown origin) cleavage at 100 nM incubated for 1 hr in presence of actinomycin D by agarose gel electrophoresis analysis; assay type: nucleic-acid assay
[23] = system: Supercoiled DNA; test: Induction of supercoiled pBR322 DNA (unknown origin) cleavage at 100 nM incubated for 1 hr in presence of 10 uM of adriamycin by agarose gel electrophoresis analysis; assay type: nucleic-acid assay
[24] = system: Supercoiled DNA; test: Induction of supercoiled pBR322 DNA (unknown origin) cleavage at 100 nM incubated for 1 hr in presence of 10 uM of actinomycin D by agarose gel electrophoresis analysis; assay type: nucleic-acid assay
[25] = system: Supercoiled DNA; test: Induction of supercoiled pBR322 DNA (unknown origin) cleavage at 100 nM incubated for 1 hr in presence of bleomycin by agarose gel electrophoresis analysis; assay type: nucleic-acid assay
[26] = system: Supercoiled DNA; test: Induction of supercoiled pBR322 DNA (unknown origin) cleavage at 100 nM incubated for 1 hr in presence of bleomycin and ferrous ion by agarose gel electrophoresis analysis; assay type: nucleic-acid assay
[27] = system: Calf thymus DNA; test: Binding affinity to calf thymus DNA assessed as DNA insertion by measuring change in gibbs free energy by fluorescence spectroscopic analysis; assay type: nucleic-acid assay; conditions: Bos taurus
[28] = system: Calf thymus DNA; test: Binding affinity to calf thymus DNA assessed as DNA insertion by measuring change in gibbs free energy in presence of triggered form of compound by fluorescence spectroscopic analysis; assay type: nucleic-acid assay; conditions: Bos taurus

With COC(=O)[C@@H](O)[C@@](C)(O)[C@@]12O[C@]13c1cc(O)c4c(c1N[C@H]2C#C/C=C\C#C[C@H]3O)C(=O)c1c(ccc(OC)c1O)C4=O the pIC50 [1] was 9.40, the pIC50 [2] was 10.00 and the pIC50 [3] was 9.40. For the same compound, the pIC50 [4] was 10.40, the IC50 at 72 h [5] was 0.4 nM and the IC50 at 72 h [6] was 0.4 nM. The pEC50 [7] was 6.60, the Activity [8] was “Active” and the Activity [9] was “Active”. The Activity [10] was “Active”, the Activity [11] was “Active” and the Activity [12] was “Active”. The Activity [13] was “Active”, the Activity [14] was “Active” and the deltaG [15] was -8.56 kcal/mol.

With BLEOMYCIN the Activity [16] was “Active”.

Work on COc1ccc2c(c1O)C(=O)c1c3c(cc(O)c1C2=O)[C@@]12O[C@@]1([C@@H](C)O)[C@H](C#C/C=C\C#C[C@H]2O)N3 yielded a pIC50 [1] of 10.30, a pIC50 [2] of 10.40 and a pIC50 [3] of 9.40. For the same compound, the pIC50 [4] was 10.70, the IC50 at 72 h [5] was 0.2 nM and the IC50 at 72 h [6] was 0.2 nM. For the same compound, the pEC50 [7] was 7.41, the Activity [17] was “Toxic” and the Activity [18] was “inactive”. For the same compound, the Activity [19] was “Active”, the Activity [20] was “Active” and the Activity [9] was “Active”. For the same compound, the Activity [10] was “Active”, the Activity [11] was “Active” and the Activity [12] was “Active”. For the same compound, the Activity [13] was “Active”, the Activity [21] was “inactive” and the Activity [22] was “inactive”. For the same compound, the Activity [23] was “inactive”, the Activity [24] was “inactive” and the Activity [25] was “Active”. The Activity [26] was “Active”, the Activity [14] was “Active” and the deltaG [15] was -8.26 kcal/mol. The deltaG [27] was -20.5 kcal/mol and the deltaG [28] was -17.8 kcal/mol.
